Measured values: US20090215628A1, “Benzoyl-Substituted Alanines” (BASF SE, priority 2006, published 2009)

What was measured:
Assay in all cases: greenhouse post-emergence herbicidal test
Type in all cases: in vivo
Amaranthus retroflexus = tested on: Amaranthus retroflexus
Description: (§1) The seeds of the test plants were sown separately for each species. For the post-emergence treatment, the test plants were first grown to a height of 3 to 15 cm, depending on the plant habit, and only then treated with the active compounds which had been suspended or emulsified in water. For this purpose, the test plants were either sown directly and grown in the same containers, or they were first grown separately as seedlings and transplanted into the test containers a few days prior to treatment. […] (active substance). Depending on the species, the plants were kept at 10-25° C. or 20-35° C. The test period extended over 2 to 4 weeks. During this time, the plants were tended, and their response to the individual treatments was evaluated. Evaluation was carried out using a scale from 0 to 100. 100 means no emergence of the plants, or complete destruction of at least the aerial parts, and 0 means no damage, or normal course of growth. The plants used in the greenhouse experiments belonged to the following species: [table]

Chenopodium album = tested on: Chenopodium album
Description: as §1

Galium aparine = conditions: application rate 0.5 kg/ha
Description: as §1

Setaria viridis = conditions: application rate 1 kg/ha
Description: The seeds of the test plants were sown separately for each species. For the post-emergence treatment, the test plants were first grown to a height of 3 to 15 cm, depending on the plant habit, and only then treated with the active compounds which had been suspended or emulsified in water. For this purpose, the test plants were either sown directly and grown in the same containers, or they were first grown separately as seedlings and transplanted into the test containers a few days prior to treatment. The rate of application for the post-emergence treatment was 1.0 kg/ha of a.s. (active substance). Depending on the species, the plants were kept at 10-25° C. or 20-35° C. The test period extended over 2 to 4 weeks. During this time, the plants were tended, and their response to the individual treatments was evaluated. Evaluation was carried out using a scale from 0 to 100. 100 means no emergence of the plants, or complete destruction of at least the aerial parts, and 0 means no damage, or normal course of growth. The plants used in the greenhouse experiments belonged to the following species: [table]

Compound | post-emergence activity against Amaranthus retroflexus (Amaranthus retroflexus; application rate 1 kg/ha) | post-emergence activity against Chenopodium album (Chenopodium album; application rate 1 kg/ha) | post-emergence activity against Amaranthus retroflexus (Amaranthus retroflexus; application rate 0.5 kg/ha) | post-emergence activity against Chenopodium album (Chenopodium album; application rate 0.5 kg/ha) | post-emergence activity against Galium aparine (Galium aparine) | post-emergence activity against Setaria viridis (Setaria viridis)
CNC(=O)C(NC(=O)c1ccc(F)cc1C(F)(F)F)C(C[N+](=O)[O-])c1cccc(F)c1C (mixture of isomers) [Compound 5.4] | very good | very good | – | – | – | –
CNC(=O)C(NC(=O)c1ccc(F)cc1C(F)(F)F)C(C[N+](=O)[O-])c1ccccc1 (racemic) [Compound 5.1, 4-Fluoro-N-(1-methylcarbamoyl-3-nitro-2-phenylpropyl)-2-trifluoromethylbenzamide] | – | – | very good | good | good | –
CNC(=O)C(NC(=O)c1ccc(F)cc1C(F)(F)F)C(C[N+](=O)[O-])c1cccc(F)c1 (mixture of isomers) [Compound 5.3] | very good | good | – | – | – | –
CNC(=O)C(NC(=O)c1ccc(F)cc1C(F)(F)F)C(CNS(C)(=O)=O)c1ccccc1 (mixture of isomers) [Compound 4.4] | very good | very good | – | – | – | very good
CNC(=O)C(NC(=O)c1ccc(F)cc1C(F)(F)F)C(CNC(=O)N(C)C)c1ccccc1 (racemic) [Compound 4.12] | very good | very good | – | – | – | very good
CNC(=O)C(NC(=O)c1ccc(F)cc1C(F)(F)F)C(c1ccccc1)C(C)[N+](=O)[O-] (mixture of isomers) [Compound 5.2] | – | – | very good | very good | very good | –
CNC(=O)[C@@H](NC(=O)c1ccc(F)cc1C(F)(F)F)[C@H](CNC(C)=O)c1ccccc1 (racemic) [Compound 4.16, N-((1RS,2RS)-3-Acetylamino-1-methylcarbamoyl-2-phenylpropyl)-4-fluoro-2-trifluoromethylbenzamide] | very good | very good | – | – | – | very good
CNC(=O)C(NC(=O)c1ccc(F)cc1C(F)(F)F)C(CNC(C)=O)c1ccccc1C (mixture of isomers) [Compound 4.34] | very good | very good | – | – | – | very good
CNC(=O)C(NC(=O)c1ccc(F)cc1C(F)(F)F)C(CNC(C)=O)c1cccc(F)c1C (mixture of isomers) [Compound 4.36] | very good | very good | – | – | – | very good
CNC(=O)C(NC(=O)c1ccc(F)cc1C(F)(F)F)C(CNC(=O)C(Cl)(Cl)Cl)c1ccccc1 (racemic) [Compound 4.22] | very good | very good | – | – | – | very good
CNC(=O)C(NC(=O)c1ccc(F)cc1C(F)(F)F)C(c1ccccc1C)C(C)O (racemic) [Compound 3.12] | – | – | very good | very good | very good | –
CNC(=O)C(NC(=O)c1ccc(F)cc1C(F)(F)F)C(CNC(=O)C(F)(F)F)c1ccccc1 (racemic) [Compound 4.21] | very good | very good | – | – | – | very good
CNC(=O)C(NC(=O)c1ccc(F)cc1C(F)(F)F)C(CNC(=O)N(C)C)c1ccccc1C (mixture of isomers) [Compound 4.33] | very good | very good | – | – | – | very good
